Test results: patent US20230312601A1, “THIAZOLO[5,4-B]PYRIDINE MALT-1 INHIBITORS” (AbbVie Inc., priority 2022, published 2023)

Columns and labels:
[1] = system: CYP 3A4 mRNA; test: CYP3A4 Induction Assay (qPCR, human hepatocytes); assay type: in vitro ADME; conditions: 10 μM compound, relative to rifampicin 10 μM
Method: (§1) CYP induction by compounds of the Examples was evaluated in vitro by determining the expression levels of CYP 3A4 mRNA using the qPCR (quantitative polymerase chain reaction) assay. On day one, cryopreserved human hepatocytes were thawed in prewarmed (37° C.) thawing medium (cryopreserved hepatocyte recovery medium, Gibco™ CM 7000; Thermo Fisher Scientific), centrifuged (1000 g for 10 minutes) and resuspended in plating medium (Gibco™ CM3000—Williams Medium E supplemented with hepatocytes plating supplement pak-serum containing; Thermo Fisher Scientific). Cells were counted by trypan blue exclusion using a hemocytometer and adjusted to a cell density of […]. Thereafter, […] of cell suspension was aliquoted per well in a 96-well plate, resulting in 60,000 cells/well. Plates were shaken in the north-south and east-west direction during plating. Plated cells were incubated at 37° C/5% CO2 in a humidified cell culture incubator for 4-6 hours. During this time, incubation medium (Gibco™ CM4000, cell maintenance supplement pack; Thermo Fisher Scientific) was mixed with Gibco™ Geltrex™ (Thermo Fischer Scientific) at the appropriate GeltrexTM protein concentration. Following recovery, medium was removed from cells and replaced with freshly prepared incubation medium. Cells were incubated overnight in a cell culture incubator (37° C./5% CO2).
(§2) The next day the incubation medium was prepared by combining the hepatocyte maintenance supplement pack with Williams Medium E. The medium was warmed to 37° C. 1000× dimethyl sulfoxide compound stocks of the compounds of the Examples were prepared to the desired concentrations. 10 mM compound stocks in dimethyl sulfoxide were diluted (1 μL to 1 mL CM4000; final concentration=10 μM). Overlay medium was aspirated and […] dose solution added to the desired labeled 96 well plate. Cells were then dosed with compound (10 μM) and prototypical induces at the targeted concentrations either 50 i.tM for omeprazole (Sigma 0104/lotBCBF-2161V) or 10 i.tM for rifampicin (Sigma R3501/lot 011M1159V). A negative control, probenecid, was dosed at 10 i.tM (Sigma P8761/lot 013K0148).
(§3) On day 3, RNA isolation was performed. All surfaces were cleaned using RNase RNAy. Total RNA was isolated using MagMAX Express 96 RNA Isolation System (Life Technologies, AM1830). Briefly, hepatocytes were washed once with 1X PBS (phosphate buffered saline). 145 μL of RNA Lysis Buffer was added to each well and each well was mixed by pipetting several times. Lysate was then transferred to a well of a 96 well Binding Plate. Samples were then mixed with 20 μL magnetic beads coming from the kit. RNA bound to beads was then captured by the magnetic tip manifold and beads were washed with the wash solution. Samples were treated with TURBOTmDNase. After TURBOTmDNase treatment, RNA was rebound to beads and washed with the provided wash buffer an additional two times. Beads are then dried, and RNA was eluted with 50 μL elution buffer. The eluted mRNA was transferred from the wells to RNase-free sealable microtiter plates and stored at -80° C. until use.
(§4) Following mRNA isolation, reverse transcription (RT) reactions were performed using TaqmanTm Reverse Transcription Reagents (ThermoFisher Scientific). RT master mix was prepared by mixing 2.5 μL 10× RT buffer, 5.5 μL 25 mM MgCl2, 5μL deoxyNTP mixture, 1.25 50 mM random hexamers, 0.5 μL 2× RNAse inhibitor, 0.625 μL multiscript RTase (50U/μL) and 0.625 μL water. An aliquot of RT mix (16 μL) and an aliquot of mRNA sample (9 μL) was added to each well of a 96-well plate. The SimpliAmpTM Thermal cycler PCR System VIIA7 from Applied Biosystems was used for reverse transcription under the following conditions: segment 1: 25° C. for 10 minutes; segment 2: 45° C. for 45 minutes; segment 3: 95° C. for 5 minutes; and segment 4: 4° C. hold; with 1 cycle for each segment. […]

[2] = system: CYP3A4 mRNA; test: CYP3A4 Induction Assay (qPCR, human hepatocytes); assay type: in vitro ADME; conditions: cryopreserved human hepatocytes (plated), 10 μM compound, mRNA fold over vehicle (0.1% DMSO)
Method: as §1, §2, §3, §4

[3] = system: OCI-LY3 IL6; test: MALT-1 Cell IL-6 AlphaLISA Assay; assay type: cell-based; conditions: Homo sapiens; OCI-LY3 cells, 48 hours incubation; read-out: OCI-LY3 IL6 48 hour Inhibition EC50
Method: The following MALT-1 Cell Interleukin-6 (IL-6) AlphaLISA assay was conducted using a Perkin Elmer® IL-6 AlphaLISA® detection kit (PE AL223). The IL-6 detection assay is a homogeneous immunoassay that detects human IL-6 present in the cell culture medium in the MALT-1 dependent human ABC-DLBCL cell line, OCI-LY3. Compounds were pre-dispensed into Black 384w microtiter plates (Greiner, 781090) from 30 μM to 1.5 nM. Viable OCI-LY3 cells were then seeded on top of compounds at a seeding density of 50,000 cells/mL. Plates were then placed into 37° C. incubators for 48 hours. After 48 hours incubation, 2 μL of cell medium from each well was transferred into white ProxiPlates™ (PE 6008289). A fresh mix of AlphaLISA Acceptor beads (10 μg/mL) and Biotinylated IL-6 Antibody (1 nM) was made in AlphaLISA Immunoassay buffer and added to all wells (4 μL). The plates were incubated for 60 minutes at room temperature. Streptavidin donor beads (40 μg/mL) were prepared using the assay buffer and added to all wells (5 The plates were incubated for 30 minutes at room temperature and read using PE EnVision® reader. Results are shown in Table 3.

[4] = biological target: human MALT-1 protein (Homo sapiens (Human), UniProt Q9UDY8); test: MALT-1 Biochemical Assay (Quench-FRET enzyme assay); conditions: human MALT-1 6 nM, substrate 2 μM, 40 min preincubation
Sequence of human MALT-1 protein (Q9UDY8 whole entry): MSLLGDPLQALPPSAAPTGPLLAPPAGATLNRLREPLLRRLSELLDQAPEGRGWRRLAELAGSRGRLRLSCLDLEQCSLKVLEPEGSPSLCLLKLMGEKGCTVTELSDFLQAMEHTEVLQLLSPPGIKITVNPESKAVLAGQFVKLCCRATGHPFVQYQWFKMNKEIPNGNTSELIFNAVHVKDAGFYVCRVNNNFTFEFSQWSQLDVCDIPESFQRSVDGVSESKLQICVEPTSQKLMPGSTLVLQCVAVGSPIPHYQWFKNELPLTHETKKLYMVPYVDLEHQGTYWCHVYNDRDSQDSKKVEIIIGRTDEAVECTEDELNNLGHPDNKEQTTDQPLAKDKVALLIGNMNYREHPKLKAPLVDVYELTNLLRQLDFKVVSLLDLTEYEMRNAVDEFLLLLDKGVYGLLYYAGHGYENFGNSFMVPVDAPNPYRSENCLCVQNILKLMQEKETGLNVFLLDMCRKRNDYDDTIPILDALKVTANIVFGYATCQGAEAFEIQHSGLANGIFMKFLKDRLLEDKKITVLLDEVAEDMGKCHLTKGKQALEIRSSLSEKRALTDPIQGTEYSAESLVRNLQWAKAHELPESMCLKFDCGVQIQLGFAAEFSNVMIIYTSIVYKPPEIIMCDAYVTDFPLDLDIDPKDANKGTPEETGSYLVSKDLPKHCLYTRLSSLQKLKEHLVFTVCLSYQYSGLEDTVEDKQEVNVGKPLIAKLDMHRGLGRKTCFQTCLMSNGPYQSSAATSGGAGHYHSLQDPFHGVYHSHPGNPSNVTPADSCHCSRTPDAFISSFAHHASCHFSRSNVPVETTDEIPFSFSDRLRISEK
Excerpt: A Quenched Fluorescence Resonance Energy Transfer (Quench-FRET) enzyme assay was used to test the ability of exemplary MALT-1 inhibitors Example 1 to Example 39 to inhibit the cleavage of a MALT1 specific quenched fluorescent substrate of sequence [TAMRA-PEG2-Leu-Val-Ser-Arg-Gly-Ala-Ala-Ser-PEG2-K(QSY7) by human MALT-1 protein; where TAMRA is 6-carboxytetramethylrhodamine, PEG2 is 2-(2-(2-aminoethoxy)ethoxyamide linker, QSY7 is a non-fluorescent quenching dye (Thermo-Fisher catalog #Q10193). The assay was performed by pre-dispensing compounds into 384 well Proxiplates™ (PE 6008289). Human MALT-1 (6 nM) was prepared using the assay buffer (25 mM HEPES pH 7.5, 1 mM ethylenediaminetetraacetic acid, 0.8 M sodium citrate, 0.005% Bovine serum albumin (BSA), 2 mM dithiothreitol (DTT)) and added to the compound plates. The plates were incubated 40 minutes at room temperature. The reaction was carried out by adding the substrate (2 μM) to the plates and incubating for 60 minutes at room temperature. A fluorescence readout was then measured using a PE EnVision® reader (Ex.535/Em.590). […] EC50 is defined as the half maximal effective concentration of compound to inhibit MALT-1 protease activity.

Row | Compound | CYP3A4 % of positive control (%) [1] | fold induction at 1 day, 10 µM [2] | EC50 [3] | EC50 [4]
1 | CO[C@H](C)c1c(Nc2ccc([C@H](N(C)C(=O)C3CCS(=O)(=O)CC3)C(F)(F)F)cc2)cnc2sc(C)nc12 [Example 8, N-methyl-1,1-dioxo-N-{(1S)-2,2,2-trifluoro-1-[4-({7-[(1R)-1-methoxyethyl]-2-methyl[1,3]thiazolo [5,4-b]pyridin-6-yl}amino)phenyl]ethyl}-1λ^6-thiane-4-carboxamide] | (9.23) % | 1.53 | 70 nM | 99 nM
2 | CO[C@@H](c1c(Nc2ccc([C@H](N(C)C(=O)C3CCS(=O)(=O)CC3)C(F)(F)F)cc2)cnc2sc(C)nc12)C(F)(F)F [Example 11, N-methyl-1,1-dioxo-N-{(1S)-2,2,2-trifluoro-1-[4-({2-methyl-7-[(1S)-2,2,2-trifluoro-1-methoxyethyl][1,3]thiazolo[5,4-b]pyridin-6-yl}amino)phenyl]ethyl}-1λ^6-thiane-4-carboxamide] | (20) % | 2.59 | 390 nM | 155 nM
3 | CO[C@@H](c1c(Nc2ccc([C@@H](C(F)F)N(C)C(=O)C3CCS(=O)(=O)CC3)cc2)cnc2sc(C)nc12)C(F)F [Example 13, N-{(1S)-1-[4-({7-[(1S)-2,2-difluoro-1-methoxyethyl]-2-methyl[1,3]thiazolo[5,4-b]pyridin-6-yl}amino)phenyl]-2,2-difluoroethyl}-N-methyl-1,1-dioxo-1λ^6-thiane-4-carboxamide] | (34.8) % | 3.19 | 420 nM | 193 nM
4 | CO[C@H](c1c(Nc2ccc([C@@H](C(F)F)N(C)C(=O)C3CCS(=O)(=O)CC3)cc2)cnc2sc(C)nc12)C(F)(F)F [Example 14, N-{(1S)-2,2-difluoro-1-[4-({2-methyl-7-[(1R)-2,2,2-trifluoro-1-methoxyethyl][1,3]thiazolo[5,4-b]pyridin-6-yl}amino)phenyl]ethyl}-N-methyl-1,1-dioxo-1λ^6-thiane-4-carboxamide] | (27.3) % | 2.71 | 200 nM | 97 nM
5 | CO[C@@H](C)c1c(Nc2ccc([C@H](N(C)C(=O)C3CCS(=O)(=O)CC3)C(F)(F)F)cc2)cnc2sc(C(F)F)nc12 [Example 15, N-{(1 5)-1-[4-({2-(difluoromethyl)-7-[(1S)-1-methoxyethyl][1,3]thiazolo[5,4-b]pyridin-6-yl}amino)phenyl]-2,2,2-trifluoroethyl}-N-methyl-1,1-dioxo-1λ^6-thiane-4-carboxamide] | (−4.74) % | 0.413 | 300 nM | 103 nM
6 | CO[C@H](c1c(Nc2ccc([C@H](N(C)C(=O)C3CCN(C(C)=O)CC3)C(F)(F)F)cc2)cnc2sc(C)nc12)C(F)F [Example 18, 1-acetyl-N-{(1,5)-1-[4({7-[(1R)-2,2-difluoro-1-methoxyethyl]-2-methyl[1,3]thiazolo [5,4-b]pyridin-6-yl}amino)phenyl]-2,2,2-trifluoroethyl}-N-methylpiperidine-4-carboxamide] | (16.5) % | 2.8 | 1150 nM | 284 nM

Other lines, results leading:

Row | CYP3A4 % of positive control (%) [1] | fold induction at 1 day, 10 µM [2] | EC50 [3] | EC50 [4] | Compound
7 | (12.7) % | 1.93 | 140 nM | 135 nM | CCN(C(=O)C1CCS(=O)(=O)CC1)[C@@H](c1ccc(Nc2cnc3sc(C)nc3c2[C@H](C)OC)cc1)C(F)(F)F [Example 7, N-ethyl-1,1-dioxo-N-{(1S)-2,2,2-trifluoro-1-[4-({7-[(1S)-1-methoxyethyl]-2-methyl[1,3]thiazolo [5,4-b]pyridin-6-yl}amino)phenyl]ethyl}-1λ^6-thiane-4-carboxamide]
8 | (−5.95) % | 0.548 | 140 nM | 102 nM | CO[C@@H](C)c1c(Nc2c(F)cc([C@H](N(C)C(=O)C3CCS(=O)(=O)CC3)C(F)(F)F)cc2F)cnc2sc(C)nc12 [Example 9, N-{(1S)-1-[3,5-difluoro-4-({7-[(1S)-1-methoxyethyl]-2-methyl[1,3]thiazolo[5,4-b]pyridin-6-yl}amino)phenyl]-2,2,2-trifluoroethyl}-N-methyl-1,1-dioxo-1λ^6-thiane-4-carboxamide]
9 | (31) % | 3.65 | 200 nM | 61 nM | CO[C@H](C)c1c(Nc2ccc([C@@H](C(F)F)N(C)C(=O)C3CCS(=O)(=O)CC3)cc2)cnc2sc(C)nc12 [Example 12, N-{(1S)-2,2-difluoro-1-[4-({7-[(1R)-1-methoxyethyl]-2-methyl[1,3]thiazolo[5,4-b]pyridin-6-yl}amino)phenyl]ethyl}-N-methyl-1,1-dioxo-1λ^6-thiane-4-carboxamide]
10 | (4.08) % | 1.38 | 180 nM | 120 nM | CO[C@@H](C)c1c(Nc2ccc([C@H](N(C)C(=O)C3CCN(C(=O)CO)CC3)C(F)(F)F)cc2)cnc2sc(C)nc12 [Example 20, 1-(hydroxyacetyl)-N-methyl-N-{(1S)-2,2,2-trifluoro-1-[4-({7-[(1S)-1-methoxyethyl]-2-methyl[1,3]thiazolo [5,4-b]pyridin-6-yl}amino)phenyl]ethyl}piperidine-4-carboxamide]
